For 35 molecules, melting point results are on record in a melting point compilation (Tetko et al.; mined from patent text by program, amines drawn as free bases though some values may be those of a salt).

A value given as a limit tells only on which side of the number the result lay.

Broadly, the melting point is the temperature of the solid-liquid transition.

As to `O=C(Cc1ccccc1)c1ccc(SCC(F)(F)F)cc1`, the melting point was in the range of 60 to 61 °C.

Molecule `O=C(Nc1c(C(O)(C(F)(F)F)C(F)(F)F)ccc2ccccc12)c1ccno1` showed a melting point of 162 to 164 °C. Take `CCOC(=O)c1cc(=O)cc(-c2ccccc2O)o1`: the melting point was 213 to 215 °C. As to `CC1(C)CC(=O)C(S(=O)Cc2ccc(F)cc2)=C(O)C1` (stereo not given), the melting point was 122 to 125 °C. On to `O=c1[nH]c2cc(C(F)(F)F)c(Cl)c(Cl)c2[nH]c1=O`, for which the melting point was above 250 °C. The molecule `CC1(C)OC(=O)Nc2ccc(-c3cccc(C(=O)c4ccccc4)c3)cc21` yielded a melting point of 156 to 157 °C.

On to `CNC(=O)N1N=C(c2ccc(N)cc2)c2cc(Cl)c(Cl)cc2CC1C` (stereo not given), for which the melting point is 224 to 225 °C. Turning to `Cc1ccc(S(=O)(=O)N2C(=O)[C@H]3CC=C[C@H]32)cc1`, the melting point fell in the range of 93 to 95 °C.

Turning to `C=Cc1nc(C(C)C)c(Sc2cc(Cl)cc(Cl)c2)n1C`, the melting point was 124 to 125 °C. The value for `Nc1c([N+](=O)[O-])cnn1-c1c(Cl)cc(C(F)(F)F)cc1Cl` was 190 °C; that for `CC(=O)NC[C@H]1CN(c2ccc(N3CCC(O)CC3)cc2)C(=O)O1` was 64 to 66 °C. The value for `Cc1cc(C)nc(NC(=O)NS(=O)(=O)c2ccccc2O)n1` was 180 °C. The value for `N=C(Nc1ccc(Cl)cc1)Nc1ncccc1OCc1ccccc1` was 170 to 172 °C; that for `Nc1cccc2c1CN(C1CCC(=O)NC1=O)C2=O` (stereo not given) was 250 to 252 °C.

`Cc1ccc(S(=O)(=O)N2[C@H](CCCC(=O)O)CC[C@@H]2c2ccc(F)cc2)cc1` (racemic) had a melting point of 87 °C. The value for `C=CC(CC(O)C(CC(C)C)NC(=O)C(Cc1c[nH]cn1)NC(=O)C(Cc1ccccc1)NC(=O)OC(C)(C)C)C(C)C` (stereo not given) was 82 °C. To `O=C(O)Cc1ccc(C(=O)c2ccccc2)cc1[N+](=O)[O-]` belongs 168 to 170 °C. The value for `CC(C)(C)OC(=O)Cc1n[nH]c2c(=O)[nH]c3cc(Cl)ccc3c(=O)c12` was 226 to 229 °C. As for `CC1CCN(C(=O)[C@H](CCCNc2ncccn2)NS(=O)(=O)c2ccc3ccccc3c2)CC1`, the melting point was in the range of 98 to 100 °C. The value for `Cc1nn(C)c(O)c1C(=O)c1ccc(Cl)cc1[N+](=O)[O-]` was 223 to 224 °C; that for `O=C1c2ccccc2OC2=CCON12` was 144 to 148 °C; that for `CC(C)c1ccc(Oc2ccc(C(=O)c3ccc(Oc4ccc(C(C)C)cc4)cc3)cc2)cc1` was 104 to 105 °C. The value for `CCNC(=O)C1=C([Si](C)(C)C)S(=O)(=O)c2ccccc21` was 135 to 148 °C; that for `CC(n1cncn1)C(O)(COc1ccc(Cl)cc1)C(C)(C)C` (stereo not given) was 80 to 104 °C. To `CC(C)(C)OC(=O)NCCCCC(=O)Nc1ccc(OCc2ccccc2)c(C(=O)NCCC(=O)OCc2ccccc2)c1` belongs 97 to 99 °C; to `COC(=O)c1ccc(-c2nc(CCl)c(C)o2)cc1`, 130 to 131 °C. `CC(C)(C)NC(=O)Nc1nc2nc(N)ncc2cc1-c1cccc(Cl)c1Cl` had a melting point of 356 to 358 °C. To `O=[N+]([O-])c1cnc2sccc2c1Cl` belongs 110 to 113 °C; to `CC(=O)Nc1ccc(CCNc2nc(C)nc3sc(C)cc23)cc1`, 248 °C; to `CC(C)(C)OC(=O)Nc1cc(NCCO)c(I)cc1[N+](=O)[O-]`, 130 to 148 °C. The value for `O=C1NC(=O)c2c(-c3ccccc3[N+](=O)[O-])ccc(-c3ccccc3)c21` was 224 to 226 °C; that for `C[C@H]1CCCN(C(=O)[C@@H]2Cc3ccccc3N2c2nccs2)C1` was 167 to 169 °C. To `Cc1nc(N)c(N)cc1Cl` belongs 128 to 130 °C; to `CC(C)c1cccc(C(C)C)c1NC(=O)C1c2ccccc2COc2cc(Br)ccc21` (stereo not given), 170 to 172 °C.

For `Cc1cc2ccccn2c1C(=O)c1ccc(O)c(Br)c1`, the melting point was in the range of 216 to 217 °C.
